Experimental findings from patent EP4759807A1, “PROTEOLYSIS TARGETING CHIMERA COMPOUND FOR DEGRADING IRAK4 AND USE THEREOF” (Shenzhen Zhongge Biological Technology Co., Ltd., priority 2023, dated 2025) are described below.

Structures can show the parent of a compound that is named as a salt. Where two headings read alike, the source gives them in different places.

The assay has as its target T1, IRAK4 (Homo sapiens, UniProt Q9NWZ3).
T1 sequence (Q9NWZ3 1-460): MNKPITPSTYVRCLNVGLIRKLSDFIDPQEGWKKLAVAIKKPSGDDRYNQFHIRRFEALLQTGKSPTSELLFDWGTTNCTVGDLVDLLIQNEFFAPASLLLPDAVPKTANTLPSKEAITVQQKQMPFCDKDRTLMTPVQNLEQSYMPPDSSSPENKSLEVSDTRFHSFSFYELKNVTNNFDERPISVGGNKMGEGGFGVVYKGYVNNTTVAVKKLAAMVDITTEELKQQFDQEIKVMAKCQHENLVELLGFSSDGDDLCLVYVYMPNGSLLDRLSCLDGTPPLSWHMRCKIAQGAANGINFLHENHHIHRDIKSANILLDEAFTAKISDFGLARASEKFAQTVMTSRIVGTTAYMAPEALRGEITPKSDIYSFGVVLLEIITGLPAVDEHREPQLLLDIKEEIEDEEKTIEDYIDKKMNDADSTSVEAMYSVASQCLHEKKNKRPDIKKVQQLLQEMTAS
In words: Hibit fluorescence detection of proteolysis (IRAK4-HiBiT in HEK293T cells). In kind it is cell-based. Further details: host or cells: HEK293T (ATCC). To be noted: for Dmax: HEK-293T; for DC50: IRAK4-HiBiT, HEK293T cells, 24 h. How it is done: Utilizing HiBiT tag technology, the HiBiT tag-containing sequence (Seq. ID. No. 1, Beijing Tsingke Biotech Co., Ltd.) was connected to the IRAK4 plasmid (Seq. ID. No. 2, Beijing Tsingke Biotech Co., Ltd.), and the plasmid was transfected into HEK293T cells (ATCC). […] The 6-well plate that was incubated overnight was taken out. After the plate was left at room temperature for 15 min, the obtained mixture was added dropwise to the 6-well plate. […] Culture was performed at 37°C and 5% CO2 for 24 h. The 384-well plate was taken out and equilibrated to room temperature. 40 µL of Nano-Glo® HiBiT Lytic Detection System (Promega N3030) was added to each well and incubated at room temperature for 15 min. […] Prism 9.3 software was used to perform fitting analysis for data, and non-linear fitting (non-liner inhibitor (Bell-shaped)) and four parameters (4 parameter) were used, and the parameters was as follows: Span1 = Plateau1−Dip [formula] Span2 = Plateau2−Dip [formula] Section1 = Span1/(1+10^(∧)((LogEC50_1−X)*nH1)) [formula] Section2 = Span2/(1+10^(∧)((X−LogEC50_2)*nH2)) [formula]
The equation was as follows: Y=Dip+Section1+Section2. • Seq. ID. No. 1 ([…]), other DNA, synthetic construct, sequence length 33; • Seq. ID. No. 2 [formula]
Background: With HiBiT, luminescence reflects the tagged protein that the partner subunit can reach.

As for `Cn1c(=O)n(C2CCC(=O)NC2=O)c2cccc(NC3CCN(C[C@H]4CC[C@H](n5cc(-n6cc(-c7ccc8cc(C(N)=O)cnn78)nn6)c(C(F)F)n5)CC4)CC3)c21` (some centres unmarked) [Example 66, 7-(1-(3-(difluoromethyl)-1-((1r,4r)-4-((4-((1-(2,6-dioxopiperidin-3-yl)-3-methyl-2-oxo-2,3-dihydro-1H-benzo[d]imidazol-4-yl)amino)piperidin-1-yl)methyl)cyclohexyl)-1H-pyrazol-4-yl)-1H-1,2,3-triazol-4-yl)pyrrolo[1,2-b]pyridazine-3-carboxamide], the Dmax lay within 70 to 80% and the DC50 is < 0.5 nM.

In the case of `Cn1c(=O)n(C2CCC(=O)NC2=O)c2cccc(N3CCN(C[C@H]4CC[C@H](n5cc(-n6cc(-c7ccc8cc(C(N)=O)cnn78)nn6)c(C(F)F)n5)CC4)CC3)c21` (some centres unmarked) [Example 57], the Dmax was in the range of 70 to 80% and the DC50 is < 0.5 nM.

Turning to `Cn1c(=O)n(C2CCC(=O)NC2=O)c2cccc(N3CCC(N4CCN(C[C@H]5CC[C@H](n6cc(-n7cc(-c8cnn9ccc(N%10CC%11(COC%11)C%10)nc89)nn7)c(C(F)F)n6)CC5)CC4)CC3)c21` (some centres unmarked) [Compound 224], the Dmax was > 80%. The DC50 (read-out: DC50) was < 0.5 nM.

Regarding `Cn1c(=O)n(C2CCC(=O)NC2=O)c2cccc(N3CCC4(CCN(C[C@H]5CC[C@H](n6cc(-n7cc(-c8cnn9ccc(N%10CCOCC%10)nc89)nn7)c(C(F)F)n6)CC5)CC4)C3)c21` (some centres unmarked) [Example 45], the Dmax was in the range of 70 to 80% and the DC50 was < 0.5 nM.

Take `Cn1c(=O)n(C2CCC(=O)NC2=O)c2cccc(N3CCC4(CCN(C[C@H]5CC[C@H](n6cc(-n7cc(-c8cnn9ccc(N%10CCS(=O)(=O)CC%10)nc89)nn7)c(C(F)F)n6)CC5)CC4)CC3)c21` (some centres unmarked) [Example 112]: the Dmax was > 80% and the DC50 was < 0.5 nM.

For `NC(=O)c1cnn2c(-c3cn(-c4cn(C5CCN(CC6CN(c7ccc8c(c7)C(=O)N(C7CCC(=O)NC7=O)C8=O)C6)CC5)nc4C(F)F)nn3)ccc2c1` (centres unmarked) [Example 75], the Dmax is > 80% and the DC50 lay within 0.5 to 1 nM.

For the compound `Cn1c(=O)n(C2CCC(=O)NC2=O)c2cccc(C#CCOC3CCN(C[C@H]4CC[C@H](n5cc(-n6cc(-n7ccc8cc(C(N)=O)cnc87)nn6)c(C(F)F)n5)CC4)CC3)c21` (some centres unmarked) [Example 106, 1-{1-[3-(difluoromethyl)-1-[(1r,4r)-4-{[4-({3-[1-(2,6-dioxohexahydropyridin-3-yl)-3-methyl-2-oxobenzo[d]imidazol-4-yl]prop-2-ynyl}oxy)hexahydropyridin-1-yl]methyl}cyclohexyl]pyrazol-4-yl]-1,2,3-triazol-4-yl}pyrrolo[2,3-b]pyridine-5-carboxamide], the Dmax lay in the range of 60 to 70% and the DC50 is < 0.5 nM.

Regarding `Cn1c(=O)n(C2CCC(=O)NC2=O)c2cccc(N3CCOC4(CCN(C[C@H]5CC[C@H](n6cc(-n7cc(-c8cnn9ccc(N%10CCOCC%10)nc89)nn7)c(C(F)F)n6)CC5)CC4)C3)c21` (some centres unmarked) [Example 38], the Dmax was < 60% and the DC50 was < 0.5 nM.

In the case of `Cn1c(=O)n(C2CCC(=O)NC2=O)c2cccc(N3CCC4(CC3)CN(C[C@H]3CC[C@H](n5cc(-n6cc(-c7cnn8ccc(N9CCOCC9)nc78)nn6)c(C(F)F)n5)CC3)C4)c21` (some centres unmarked) [Example 47], the Dmax lay in the range of 70 to 80% and the DC50 was < 0.5 nM.

Consider `Cn1c(=O)n(C2CCC(=O)NC2=O)c2cccc(N3CCN(C4CCN(C[C@H]5CC[C@H](n6cc(-n7cc(-c8cnn9ccc(NCC%10CC%10)nc89)nn7)c(C(F)F)n6)CC5)CC4)CC3)c21` (some centres unmarked) [Example 110, 3-(4-(4-(1-(((1r,4r)-4-(4-(5-((cyclopropylmethyl)amino)pyrazolo[1,5-a]pyrimidin-3-yl)-1H-1,2,3-triazol-1-yl)-3-(difluoromethyl)-1H-pyrazol-1-ylcyclohexyl)methyl)piperidin-4-yl)piperazin-1-yl)3-methyl-2-oxo-2,3-dihydro-1H-benzo[d]imidazol-1-yl)piperidine-2,6-dione], for which the Dmax was > 80% and the DC50 is < 0.5 nM.

Regarding `Cn1c(=O)n(C2CCC(=O)NC2=O)c2cccc(CCCN3CCOC(CNCC4CCC(n5cc(-n6cc(-c7cnn8ccc(N9CCOCC9)nc78)nn6)c(C(F)F)n5)CC4)C3)c21` [Example 2, 3-(4-(3-((S)-2-((((4-(-3-(difluoromethyl)-4-(4-(5-morpholinopyrazolo [1,5-a]pyrimidin-3-yl)-1H-1,2,3-triazol-1-yl)-1H-pyrazol-1-ylcyclohexyl)methyl)amino)methyl)morpholinyl)propyl)-3-methyl-2-oxo-2,3-dihydro-1H-benzo[d]imidazol-1-yl)piperidine-2,6-dione], the Dmax is < 60% and the DC50 was < 0.5 nM.

With `Cn1c(=O)n(C2CCC(=O)NC2=O)c2cccc(C3CN(C4CN(C[C@H]5CC[C@H](n6cc(-n7cc(-c8ccc9cc(C(N)=O)cnn89)nn7)c(C(F)F)n6)CC5)C4)C3)c21` (some centres unmarked) [Example 83], the Dmax lay in the range of 70 to 80% and the DC50 is < 0.5 nM.

On to `CN(CC1CCN(CCC#Cc2cccc3c2n(C)c(=O)n3C2CCC(=O)NC2=O)CC1)C[C@H]1CC[C@H](n2cc(-n3cc(-c4cnn5ccc(N6CCOCC6)nc45)nn3)c(C(F)F)n2)CC1` (some centres unmarked) [Example 25], for which the Dmax is < 60% and the DC50 was < 0.5 nM.

As for `NC(=O)c1cnn2c(-c3cn(-c4cn(C5CCN(CCN6CCN(c7ccc8c(c7)C(=O)N(C7CCC(=O)NC7=O)C8=O)CC6)CC5)nc4C(F)F)nn3)ccc2c1` (centres unmarked) [Example 93], the Dmax is 70 to 80% and the DC50 fell in the range of 1 to 5 nM.

Consider `Cn1c(=O)n(C2CCC(=O)NC2=O)c2cccc(N3CCC(N4CCN(C[C@H]5CC[C@H](n6cc(-n7cc(-c8cnn9ccc(N%10CCS(=O)(=O)CC%10)nc89)nn7)c(C(F)F)n6)CC5)CC4)CC3)c21` (some centres unmarked) [Example 111, 3-(4-(4-(((1r,4r)-4-(3-(difluoromethyl)-4-(4-(5-(1,1-dioxodimorpholinyl)pyrazolo[1,5-a]pyrimidin-3-yl)-1H-1,2,3-triazol-1-yl)-1H-pyrazol-1-ylcyclohexyl)methyl)piperazin-1-yl)piperidin-1-yl)-3-methyl-2-oxo-2,3-dihydro-1H-benzo[d]imidazol-1-yl)pyridine-2,6-dione], for which the Dmax was > 80% and the DC50 was 0.5 to 1 nM.

As for `Cn1c(=O)n(C2CCC(=O)NC2=O)c2cccc(N3CCN(C[C@H]4CC[C@H](n5cc(-n6cc(-c7cnn8ccc(N9CCC(C)(O)CC9)nc78)nn6)c(C(F)F)n5)CC4)CC3)c21` (some centres unmarked) [Compound 235], the Dmax is > 80%. The DC50 (read-out: DC50) was < 0.5 nM.

As for `Cn1c(=O)n(C2CCC(=O)NC2=O)c2cccc(C3CCN(C[C@H]4CC[C@H](n5cc(-n6cc(-n7ccc8cc(C(N)=O)cnc87)nn6)c(C(F)F)n5)CC4)CC3)c21` (some centres unmarked) [Example 101, 1-(1-(3-(difluoromethyl)-1-((1r,4r)-4-((4-(1-(2,6-dioxopiperidin-3-yl)-3-methyl-2-oxo-2,3-dihydro-1H-benzo[d]imidazol-4-yl)piperidin-1-yl)methyl)cyclohexyl)-1H-pyrazol-4-yl)-1H-1,2,3-triazol-4-yl)-1H-pyrrolo[2,3-b]pyridine-5-carboxamide], the Dmax lay within 70 to 80% and the DC50 was < 0.5 nM.

`Cn1c(=O)n(C2CCC(=O)NC2=O)c2cccc(C(=O)N3CCC(NC[C@H]4CC[C@H](n5cc(-n6cc(-c7cnn8ccc(N9CCOCC9)nc78)nn6)c(C(F)F)n5)CC4)CC3)c21` (some centres unmarked) [Example 29]: the Dmax was 70 to 80% and the DC50 is > 5 nM.

Take `Cn1c(=O)n(C2CCC(=O)NC2=O)c2cccc(N3CCN(C4CCN(C[C@H]5CC[C@H](n6cc(-n7cc(-c8cnn9ccc(N%10CCC[C@H](N)C%10)nc89)nn7)c(C(F)F)n6)CC5)CC4)CC3)c21` (stereo partly drawn) [Example 117, 3-{4-[4-(1-{[(1S,4r)-4-[3-(difluoromethyl)-4-(4-{5-[(3S)-3-aminohexahydropyridin-1-yl]pyrazolo[1,5-a]pyrimidin-3-yl}-1,2,3-triazol-1-yl)pyrazol-1-yl]cyclohexyl]methyl}hexahydropyridin-4-yl)piperazin-1-yl]-3-methyl-2-oxobenzo[d]imidazol-1-yl}hexahydropyridine-2,6-dione hydrochloride]: the Dmax was > 80% and the DC50 lay in the range of 1 to 5 nM.
